The species named for experiment [1] is Rattus norvegicus. Nature of the experiment: Androgenic activity in rat assessed as increase in final body weight at 3 mg in presence of testosterone (reference value: 98 g). The format is functional.
The species entered for experiment [2] is Rattus norvegicus. Nature of the experiment: Antiandrogenic activity in rat assessed as reduction in seminal vesicle weight at 3 mg. In kind it is functional, organism-based.
The species named for experiment [3] is Rattus norvegicus. Nature of the experiment: Androgenic activity in rat assessed as increase of seminal vesicle weight at 3 mg (reference value: 11.4 +/- 0.38 mg). The format is functional.
The species named for experiment [4] is Rattus norvegicus. Nature of the experiment: Myotrophic activity in rat assessed as increase of levator ani weight at 3 mg (reference value: 32.2 +/- 1.82 mg). The format is functional.
The species entered for experiment [5] is Rattus norvegicus. Nature of the experiment: Androgenic activity in rat assessed as increase in final body weight at 3 mg (reference value: 98 g). In kind it is functional.
For experiment [6], the species on record is Rattus norvegicus. Nature of the experiment: Androgenic activity in rat assessed as increase of ventral prostate weight at 3 mg (reference value: 18.1 +/- 0.91 mg). In kind it is functional, Prostate gland.
Experiment [7] is filed under the species Rattus norvegicus. Nature of the experiment: Antimyotrophic activity in rat assessed as reduction in levator ani weight at 3 mg. In kind it is functional, organism-based.
For experiment [8], the species on record is Rattus norvegicus. Nature of the experiment: Myotrophic activity in rat assessed as increase of levator ani weight at 3 mg in presence of testosterone (reference value: 32.2 +/- 1.82 mg). In kind it is functional.
The species named for experiment [9] is Rattus norvegicus. Nature of the experiment: Androgenic activity in rat assessed as increase of seminal vesicle weight at 3 mg in presence of testosterone (reference value: 11.4 +/- 0.38 mg). The format is functional.
The species entered for experiment [10] is Rattus norvegicus. Nature of the experiment: Androgenic activity in rat assessed as increase of ventral prostate weight at 3 mg in presence of testosterone (reference value: 18.1 +/- 0.91 mg). The format is functional, Prostate gland.
The species entered for experiment [11] is Rattus norvegicus. Nature of the experiment: Antiandrogenic activity in rat assessed as reduction in ventral prostate weight at 3 mg. Conditions: Prostate gland. The format is functional, organism-based.
Experiment [12] is filed under the species Rattus norvegicus. Nature of the experiment: Myotrophic activity in rat assessed as increase of levator ani weight (reference value: 32.2 +/- 1.82 mg). In kind it is functional.
The species entered for experiment [13] is Rattus norvegicus. Nature of the experiment: Androgenic activity in rat assessed as increase of ventral prostate weight (reference value: 18.1 +/- 0.91 mg). In kind it is functional, Prostate gland.
For experiment [14], the species on record is Rattus norvegicus. Nature of the experiment: Androgenic activity in rat assessed as increase in final body weight (reference value: 98 g). In kind it is functional.
Experiment [15] is filed under the species Rattus norvegicus. Nature of the experiment: Androgenic activity in rat assessed as increase of seminal vesicle weight (reference value: 11.4 +/- 0.38 mg). In kind it is functional.
The species entered for experiment [16] is Rattus norvegicus. Nature of the experiment: Myotrophic activity in rat assessed as increase of levator ani weight at 0.3 mg (reference value: 32.2 +/- 1.82 mg). In kind it is functional.
Experiment [17] is filed under the species Rattus norvegicus. Nature of the experiment: Androgenic activity in rat assessed as increase in final body weight at 0.3 mg (reference value: 98 g). The format is functional.
The species entered for experiment [18] is Rattus norvegicus. Nature of the experiment: Androgenic activity in rat assessed as increase of ventral prostate weight at 0.3 mg (reference value: 18.1 +/- 0.91 mg). The format is functional, Prostate gland.
For experiment [19], the species on record is Rattus norvegicus. Nature of the experiment: Androgenic activity in rat assessed as increase of seminal vesicle weight at 0.3 mg (reference value: 11.4 +/- 0.38 mg). The format is functional.

Calls of active or inactive are those of the source. No cut-off for these calls is given here.

For three molecules, Activity and inhibition results are on record in ChEMBL document CHEMBL3228017, “Apparent bioisosteric replacement of--S--by NCN: synthesis of N--cyano-2-aza-A-nor-5alpha-androstan-17beta-ol acetate, an aza steroid androgen” (1979).

On to `CC(=O)O[C@H]1CC[C@H]2[C@@H]3CC[C@H]4CN(C#N)C[C@]4(C)[C@H]3CC[C@]12C`, for which the Activity turned out to be 99 g in the experiment listed under Rattus norvegicus [1]; 33.3 mg in the experiment listed under Rattus norvegicus [3]; 55.8 mg in the experiment filed under Rattus norvegicus [4]; 95 g in the experiment listed under Rattus norvegicus [5]; 56.1 mg in the experiment listed under Rattus norvegicus [6]; 58.7 mg in the experiment listed under Rattus norvegicus [8]. Further, the Activity in the experiment filed under Rattus norvegicus [9] is given as 40.6 mg; in the experiment filed under Rattus norvegicus [10], 61.6 mg. Besides, the inhibition result in the experiment filed under Rattus norvegicus [2], in the experiment filed under Rattus norvegicus [7] and in the experiment listed under Rattus norvegicus [11] was “inactive” in each case.

`CC(=O)O[C@H]1CC[C@H]2[C@@H]3CC[C@H]4CN(Cc5ccccc5)C[C@]4(C)[C@H]3CC[C@]12C`: the Activity was found to be 24.2 mg in the experiment listed under Rattus norvegicus [12], 19.4 mg in the experiment filed under Rattus norvegicus [13], 89 g in the experiment filed under Rattus norvegicus [14] and 10.7 mg in the experiment listed under Rattus norvegicus [15].

Regarding `C[C@]12CC[C@H]3[C@@H](CCC4=CC(=O)CC[C@@]43C)[C@@H]1CC[C@@H]2O` [TESTOSTERONE], the Activity stood at 37.8 mg in the experiment listed under Rattus norvegicus [16], 97 g in the experiment listed under Rattus norvegicus [17], 35.3 mg in the experiment filed under Rattus norvegicus [18] and 12.9 mg in the experiment listed under Rattus norvegicus [19].
